Experiment: relative permittivity at various frequencies (dimensionless); wn = mass fraction of the nth substance listed
Conditions: Liquid, direct capacitance:P =

O=C=O [carbon dioxide] + CCO
Conditions	relative permittivity
304.9 K, 29800 kPa, w2 = 0.152	2.85
312.8 K, 8000 kPa, w2 = 0.212	2.8
312.8 K, 9300 kPa, w2 = 0.212	2.86
312.8 K, 11200 kPa, w2 = 0.212	2.94
312.8 K, 11500 kPa, w2 = 0.212	2.94
312.8 K, 14200 kPa, w2 = 0.212	3
312.8 K, 14300 kPa, w2 = 0.212	3.01
312.8 K, 14900 kPa, w2 = 0.212	3.03
312.8 K, 15800 kPa, w2 = 0.212	3.05
312.8 K, 17400 kPa, w2 = 0.212	3.11
312.8 K, 18000 kPa, w2 = 0.212	3.14
312.8 K, 20000 kPa, w2 = 0.212	3.17
312.8 K, 20600 kPa, w2 = 0.212	3.18
312.8 K, 22200 kPa, w2 = 0.212	3.22
312.8 K, 22800 kPa, w2 = 0.212	3.23
312.8 K, 23700 kPa, w2 = 0.212	3.25
312.8 K, 26300 kPa, w2 = 0.212	3.3
312.8 K, 28100 kPa, w2 = 0.212	3.32
312.8 K, 28400 kPa, w2 = 0.212	3.34
312.8 K, 30800 kPa, w2 = 0.212	3.37
313 K, 9700 kPa, w2 = 0.05	1.63
313 K, 9800 kPa, w2 = 0.05	1.64
313 K, 9900 kPa, w2 = 0.05	1.65
313 K, 11300 kPa, w2 = 0.05	1.7
313 K, 11700 kPa, w2 = 0.05	1.7
313 K, 11800 kPa, w2 = 0.05	1.7
313 K, 13200 kPa, w2 = 0.05	1.74
313 K, 13700 kPa, w2 = 0.05	1.74
313 K, 15100 kPa, w2 = 0.05	1.77
313 K, 15700 kPa, w2 = 0.05	1.78
313 K, 17400 kPa, w2 = 0.05	1.8
313 K, 17500 kPa, w2 = 0.05	1.8
313 K, 19200 kPa, w2 = 0.05	1.82
313 K, 20700 kPa, w2 = 0.05	1.83
313 K, 21600 kPa, w2 = 0.05	1.84
313 K, 23500 kPa, w2 = 0.05	1.86
313 K, 25300 kPa, w2 = 0.05	1.87
313 K, 25400 kPa, w2 = 0.05	1.87
313 K, 27400 kPa, w2 = 0.05	1.89
313 K, 30400 kPa, w2 = 0.05	1.91
313.1 K, 9700 kPa, w2 = 0.1	1.98
313.1 K, 10100 kPa, w2 = 0.152	2.37
313.1 K, 10200 kPa, w2 = 0.1	2
313.1 K, 10900 kPa, w2 = 0.152	2.39

From the NIST ThermoML archive (doi:10.1021/je2003012)
